Reference: patent US7803824B2, “Use of inhibitors of Jun N-terminal kinases to treat glaucoma” (Alcon, Inc., priority 2004, dated 2010)

Test system: adult rat retinal ganglion cells (RGC)
Test: Cultured adult rat RGC survival under cytotoxic insults (Example 4)
Type: cell-based
Conditions: 30 min pre-treatment, then 100 μM glutamate for 3 days
Description: Adult Sprague-Dawley rats were euthanized by CO2 asphyxiation. Their eyes were enucleated and the retinas isolated. Retinal cells were treated with of papain solution for 25 min at 37° C., then washed 3 times with 5 mL RGC culture medium (Neurobasal medium with various nutrient supplements+1% fetal calf serum). Retinal cells were dispersed by trituration. Cell suspension was placed onto poly-D-lysine- and laminin-coated 8-well chambered culture slides. The cells were then cultured in 95% air/5% CO2 at 37° C.
For glutamate-induced toxicity studies, cells were pre-treated with vehicle or the indicated compounds for 30 minutes, followed by 100 μM glutamate for 3 days.
For trophic factor withdrawal studies, three trophic factors, basic fibroblast growth factor, brain-derived neurotrophic factor, and ciliary neurotrophic factor, were removed from the culture medium. Cells were cultured in this medium with the indicated compounds for 3 days.
At the end of the incubation period, the cells were fixed and labeled for Thy-1, a RGC marker, by immunocytochemistry. Cell survival was quantified by manually counting Thy-1-positive healthy cells in each well.

C[C@]12N[C@H](Cc3ccccc31)c1ccccc12 [MK801]
RGC survival, glutamate-induced toxicity (Thy-1-positive healthy cells): prevented
